Reference: patent US20030149242A1, “Novel polypeptide” (Pfizer Inc., priority 1999, published 2003)

Experiments:
[1] = test system: isolated human eosinophils; details: described by Raible et al. (1994); cited from earlier work
[2] = test system: isolated human eosinophils; assay: Human eosinophil chemotaxis assay (Boyden chamber) with histamine receptor subtype-selective agonists; assay type: cell-based; details: in vitro, agonist in bottom wells, 45 minutes, FIG. 9
Protocol: (§1) Eosinophils were isolated from peripheral blood as previously described (Hansel, T T., De Vries I J., Iff T., Rihs S., Wandzilak M., Betz S., Blaser K. and Walker C. (1991). An improved immunomagnetic procedure for the isolation of highly purified human blood eosinophils. J. Imm. Meth. 145:105-10). Chemotaxis was measured using a 48-well Boyden chamber (Neuro Probe Inc., Cabin John, Md., USA). Agonists were diluted in RPMI media (BioWhittaker, Walkersville, Md., USA) containing 0.1% bovine serum albumin (BSA) (Gibco BRL, Gaithersburg, Md., USA) and added to the bottom wells of the chemotaxis chamber. A 5 µm PVP-free polycarbonate filter was used to separate the wells of the chamber (Neuro Probe Inc., Cabin John, Md., USA). Eosinophils were resuspended in RPMI/BSA media at a concentration of 2.5×10^6 cells per ml. 50 µl of this cell suspension were then added to the upper chamber. Chambers were incubated for 45 minutes in a 5% CO2-humidified atmosphere at 37° C. After the incubation period, the filters were removed, the top side was scraped to remove non-migrating cells, and the filters were stained with Diff-Quik stain (Dade Behring AG, Dudingen, Switzerland). The number of cells migrating (bottom of filter) were counted by light microscopy. The mean of three high-powered fields was then determined. The number of migrating cells was calculated by subtracting […]. All compounds were purchased from Sigma-RBI.
Experiments were performed to characterise the histamine receptor subtype involved in the eosinophil chemotactic response to histamine. Methodology was as detailed above. […] Eotaxin was included as a positive control for eosinophil chemotaxis.

PFI-013 [3] = biological target: T1, PFI-013 (Homo sapiens, UniProt Q9H3N8); assay: FLIPR functional cell-based assay (intracellular calcium) in PFI-013-transfected HEK293 cells expressing mouse Gα15; design: expressed in transfected cells; host or cells: HEK293 cells expressing mouse Gα15, transient transfection; details: for activation of PFI-013 by histaminergic compounds: FIG. 8, rank order of potency N-α-methyl histamine > histamine > R-α-methyl histamine = histamine-1-methyl
T1 sequence (Q9H3N8 whole entry): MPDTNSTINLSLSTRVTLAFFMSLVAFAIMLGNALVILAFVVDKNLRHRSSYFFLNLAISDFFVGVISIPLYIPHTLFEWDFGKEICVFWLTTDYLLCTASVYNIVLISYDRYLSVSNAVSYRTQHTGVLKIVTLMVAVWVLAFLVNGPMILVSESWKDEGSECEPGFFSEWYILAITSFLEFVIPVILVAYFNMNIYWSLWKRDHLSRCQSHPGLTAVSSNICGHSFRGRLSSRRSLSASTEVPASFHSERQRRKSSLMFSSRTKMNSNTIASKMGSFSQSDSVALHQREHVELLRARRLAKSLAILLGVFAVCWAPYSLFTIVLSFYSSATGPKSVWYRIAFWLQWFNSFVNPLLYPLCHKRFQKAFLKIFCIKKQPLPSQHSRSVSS
Protocol: Fluorescence Imaging Plate Reader (FLIPR®) technology was employed as a means to detect activation of PFI-013 by histamine or histamine agonists in a cell-based assay.
5×10^6 Human Embryonic Kidney (HEK) 293 cells expressing the mouse Gα15 gene (from here on called ‘293 cells’), were transiently transfected with 7.5 μg of PFI-013 (contained within the pcDNA4HISmaxB (Invitrogen) plasmid) vector, or vector alone, using Lipofectamine Plus® reagent (Gibco BRL) as per the manufacturer's protocol. The PFI-013 cDNA had been cloned into pcDNA4HISmaxB using restriction sites KpnI and NotI to excise the PFI-013 cDNA from pcDNA3.1/V5-His-TOPO and to insert the cDNA into pcDNA4HISmaxB using standard molecular biology techniques (e.g. according to Sambrook, et al., eds. (1989) Molecular Cloning: A Laboratory Manual, Cold Spring Harbor Laboratory Press, New York, N.Y., USA) and using T4 DNA ligase to join the fragments; pcDNA4HISmaxB was used as it contains elements that up-regulate the level of gene transcription over standard pcDNA3.1 vectors). 24 hrs post-transfection, the cells were detached from the flask using Trypsin/EDTA solution (LTI) and seeded into a black sided, Poly-D-lysine-treated, 96-well plate (Becton Dickinson) at 5×10^4 cells/well density. The plates were left overnight to allow the cells to adhere to the bottom of the wells. The medium was removed from the cells and replaced with 100 μl warm (37° C.) dye loading solution (50 μg Fluo3 (Molecular probes) in 20 μl DMSO+20% pluronic acid in DMSO, added to 11 ml Dulbecco's Modified Eagles Medium containing 1×Probenecid (100×Probenecid—0.71 g Probenecid was dissolved in 5 ml 1M NaOH and 5 ml Dulbeccos' Phosphate Buffered Saline (PBS), per plate; Probenecid (Molecular Devices) inhibits activity of the anion transport protein, thus improving dye loading). The plates were then incubated for 1 hr at 37° C. Plates were subsequently washed with 250 μl of wash buffer per well (5 ml 100×Probenecid stock+495 ml PBS, pH 7.4) 4 times. The plates were returned to the 37° C./5% CO2 incubator for 30 mins prior to processing within the FLIPR® instrument. The FLIPR® processing involved reading the fluorescence for all samples for 2 minutes; during this time the fluorescence baseline was determined for 10 seconds. The desired amount of compound (i.e. histamine or histamine agonists) was then automatically transferred to the wells and the fluorescence was continuously monitored for the remainder of the time. All compounds were diluted in wash buffer.
Using methodology as described in detail above, the effect of histamine on the functional activation of PFI-013 was investigated.
Using methodology as described in detail above, the effect of histaminergic compounds on the functional activation of PFI-013 was investigated.
FIG. 8 depicts the action of various histaminergic compounds (columns 2 to 10) serially diluted from […] (rows A and B) down to 0.5 μM in duplicate (rows G and H), on PFI-013-transfected 293 cells (FIG. 8A) or vector-only transfected 293 cells (FIG. 8B). Remaining wells contained buffer only with no compound.

[4] = test system: isolated human eosinophils; assay: Inhibition of histamine-induced chemotaxis of IL-5-primed human eosinophils; assay type: cell-based; details: for IC50: Homo sapiens, Eosinophil, histamine 30 nM as agonist, antagonists at 10, 1 and 0.1 μM, preliminary results, FIG. 10C, read-out: IC50 for antagonising histamine-induced chemotaxis of human eosinophils; for reduction of the chemotactic response of isolated human eosinophils to histamine dihydrochloride: antagonists at a single concentration of 10 μM, IL-5-primed eosinophils, FIG. 10B
Protocol: as §1
Antagonist experiments were performed to further characterise the histamine receptor subtype involved in the eosinophil chemotactic response to histamine. […] Antagonists were used at a single concentration of 10 μM. Antagonists tested were: mepyramine maleate (histamine H1 antagonist), cimetidine (histamine H2 antagonist), thioperamide (histamine H3 antagonist) and clobenpropit (histamine H3 antagonist).
A further experiment was performed to determine the IC50 of both thioperamide and clobenpropit (histamine H3 antagonists) for inhibiting isolated human eosinophil in vitro chemotaxis. Methodology was as above, using thioperamide and clobenpropit at 10 μM, 1 μM and 0.1 μM concentrations (Histamine, as the agonist, was used at 30 nM).

PFI-013 [5] = biological target: T1, PFI-013; details: 3H-histamine 0.72-1500 nM; difference between PFI-013-transfected and mock-transfected CHO-K1 membranes; preliminary data, FIG. 6

Row | Compound | chemotactic response of isolated human eosinophils [2] | activation of PFI-013 by histaminergic compounds (PFI-013 [3]) | also measured
1 | CNC(=S)NCCCCc1cnc[nH]1 [Burimamide] | displayed no chemotactic activity | – | effect on intracellular Ca2+ production in isolated human eosinophils [1]: partial agonist effect
2 | CN(C)CCCSC(=N)N [Dimaprit] | displayed no chemotactic activity | no activation of PFI-013 could be detected | –
3 | CC(CCCCC(=O)Nc1ccc(C(F)(F)F)cc1)NCCc1cnc[nH]1.O=C(O)/C=C\C(=O)O.O=C(O)/C=C\C(=O)O (stereo not shown) [HTMT, HTMT dimaleate] | very weak chemotactic response only at the highest concentration tested (1 μM) | – | –
4 | N=C(N)SCCc1cnc[nH]1 [Imetit] | displayed no chemotactic activity | no activation of PFI-013 could be detected | –
5 | N[C@@H](Cc1c[nH]cn1)C(=O)O [L-histidine] | – | no activation of PFI-013 could be detected | –
6 | CNCCc1cnc[nH]1 [N-α-methyl histamine] | – | activated | –
7 | C[C@@H](N)Cc1c[nH]cn1 [R-α-methyl histamine] | – | activated | –
8 | NC(=NCc1ccc(Cl)cc1)SCCCc1cnc[nH]1 [clobenpropit] | – | no activation of PFI-013 could be detected | IC50 [4]: 1500 nM; reduction of the chemotactic response of isolated human eosinophils to histamine dihydrochloride [4]: greatest effect on the reduction of the chemotactic response
9 | Cl.Cl.NCCc1c[nH]cn1 [histamine dihydrochloride] | induced a significant chemotactic response | – | –
10 | Cn1cnc(CCN)c1 [histamine-1-methyl] | – | activated | –
11 | NCCc1c[nH]cn1 [histamine] | – | activated | binding of histamine to PFI-013 (PFI-013 [5]): binds to PFI-013, albeit with relatively low affinity; activation of PFI-013 by histamine (transient increase in intracellular calcium) (PFI-013 [3]; at the 10 μM concentration, tested 10 μM serially diluted in log steps down to 10 pM, versus vector-only cells, FIG. 7): specific activation of PFI-013
12 | COc1ccc2c(c1OC)C(=O)O[C@@H]2[C@H]1c2c(cc3c(c2OC)OCO3)CCN1C [noscapine] | – | no activation of PFI-013 could be detected | –
13 | S=C(NC1CCCCC1)N1CCC(c2cnc[nH]2)CC1 [thioperamide] | – | – | IC50 [4]: 830 nM; reduction of the chemotactic response of isolated human eosinophils to histamine dihydrochloride [4]: greatest effect on the reduction of the chemotactic response
14 | IL-5: interleukin-5, used to prime the eosinophils for chemotaxis studies | – | – | effect of IL-5 priming of eosinophils on the chemotactic response to histamine ([4]; IL-5 pretreatment of the eosinophils, FIG. 10A): enhance the chemotactic response to histamine
